# According to PubChem BioAssay (NCI):
#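 Tested at 5 concentrations; 48 h exposure; 96-well plates; endpoints linearly interpolated, else capped at highest concentration. The concentration for 50% growth inhibition is given as GI50. TGI denotes the concentration required for complete inhibition of growth.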
# Tests used:
# Test in all cases: NCI tumour cell line growth inhibition, 48 h
# [1] = test system: SK-OV-3 ovarian
# [2] = test system: K-562 leukemia
# [3] = test system: SW-620 colon
# [4] = test system: OVCAR-3 ovarian
# [5] = test system: SNB-75 CNS
# [6] = test system: SF-295 CNS
# [7] = test system: M14 melanoma
# [8] = test system: TK-10 renal
# [9] = test system: 786-0 renal
# [10] = test system: BT-549 breast
Structure (SMILES),TGI [1] [µM],TGI [2] [µM],TGI [3] [µM],TGI [4] [µM],TGI [5] [µM],TGI [6] [µM],TGI [7] [µM],TGI [8] [µM],TGI [9] [µM],GI50 [7] [µM],GI50 [3] [µM],GI50 [8] [µM],GI50 [10] [µM],GI50 [4] [µM],GI50 [5] [µM],GI50 [6] [µM],TGI [10] [µM],GI50 [1] [µM],GI50 [2] [µM]
CN(c1ccccc1)c1c(-c2ccccc2)c(=O)oc2c1ccc1occc12,> 100,> 100,> 100,> 100,> 100,> 100,–,–,–,–,–,–,–,–,–,–,–,–,–
CC12CC(=O)NN=C1c1ccccc1C2 (configuration not stated),> 100,> 100,> 100,> 100,> 100,> 100,> 100,> 100,> 100,–,–,–,–,–,–,–,–,–,–
CCCCCCCCCC[C@@H](O)[C@H]1CC[C@@H]([C@H]2CC[C@H]([C@H](O)CCCCCCCCCC[C@@H]3CC(CC(C)=O)C(=O)O3)O2)O1 (some centres not stated),–,–,> 100,39.4,–,> 100,50.4,> 100,> 100,20,37.2,26.9,23.7,18.1,72,0.483,–,–,–
CC(C)(CN1CCCCC1)C(=O)CC(SCCS(=O)(=O)O)c1ccc(Cl)c(Cl)c1 (configuration not stated),45,–,4.61,6.97,–,15.8,3.8,18.9,3.4,–,–,–,–,–,–,–,13,–,–
Cn1c(=O)c2[nH]cnc2n(C)c1=O,–,> 100,> 100,> 100,–,–,> 100,> 100,> 100,–,–,–,–,–,–,–,–,–,–
O=C(n1c(=O)n(-c2ccc([N+](=O)[O-])cc2)c(=O)n1C(=O)C(Cl)(Cl)Cl)C(Cl)(Cl)Cl,> 100,–,> 100,> 100,> 100,> 100,> 100,> 100,> 100,–,–,–,–,–,–,–,> 100,–,–
Cc1ccc(N=Nc2cc(=O)[nH]c(=O)[nH]2)cc1C,–,> 100,14.9,4.19,15.3,28.7,41.1,34.3,8.69,–,–,–,–,–,–,–,26.6,–,–
CC1Oc2c(c(O)cc3oc(=O)cc(-c4ccccc4)c23)C(=O)C1C (configuration not stated),> 100,> 100,> 100,> 100,> 100,> 100,> 100,> 100,–,–,–,–,–,–,–,–,–,–,–
NCCCN1CCN(CCCNc2ccc3ncn4c5ccccc5c(=O)c2c34)CC1,> 25,> 25,> 25,> 25,8.71,15.7,8.05,> 25,24,–,–,–,–,–,–,–,–,–,–
CC(C)=CCC/C(C)=C/CCC1(C)C2COC(=O)C21 (configuration not stated),> 100,49.2,> 100,> 100,–,> 100,–,> 100,> 100,–,–,–,–,–,–,–,> 100,–,–
Cc1ccc(NC(=O)NC23CC4CC(CC(F)(C4)C2)C3)cc1,> 100,> 100,> 100,> 100,87.1,–,> 100,> 100,> 100,–,–,–,–,–,–,–,–,–,–
O.O=[Se](=O)(O)O.[NH-]C1CCCCC1[NH-].[Pt+2] (configuration not stated),> 100,> 100,> 100,> 81.9,> 83,> 92.1,–,–,–,–,2.11,–,–,21.2,16.9,15.4,–,64.8,5.35
COc1ccc(CNc2cnc3cc(N)ccc3n2)cc1OC,–,> 100,> 100,> 100,> 100,> 100,> 100,> 100,> 100,–,–,–,–,–,–,–,–,–,–
CC(C)(C)OC(=O)N[C@@H](Cc1ccccc1)C(=O)N1CC[C@@H](C(=O)N2[C@H]3CC4CC[C@@]3(CS2(=O)=O)C4(C)C)N1,> 100,> 100,> 100,> 100,> 100,–,> 100,–,> 100,–,–,–,–,–,–,–,> 100,–,–
O=c1oc2ccccc2cc1-c1nc2ccccc2s1,23.7,–,34.8,20.7,17.4,–,> 47.6,33.5,10.6,–,–,–,–,–,–,–,46.4,–,–
CC(=O)Nc1[nH]c(=O)[nH]c(=O)c1N(C(C)=O)C(C)=O,–,> 100,> 100,> 100,–,> 100,> 100,–,> 100,–,–,–,–,–,–,–,–,–,–
O=C(c1ccccc1)c1ccc2c(c1)N=C(c1ccc(Cl)c(Cl)c1)CC(c1ccc3ccccc3c1)N2 (configuration not stated),> 100,> 100,> 100,–,> 100,> 100,> 100,> 100,–,–,–,–,–,–,–,–,–,–,–
CN1C(C(=O)Nc2ccccn2)=C(O)c2ccccc2S1(=O)=O,> 100,–,> 100,> 100,> 100,> 100,> 100,> 100,> 100,–,–,–,–,–,–,–,> 100,–,–
Clc1cccc(Cl)c1C1ON=C(c2ccccc2)N1C12CC3CC(CC(C3)C1)C2 (configuration not stated),> 100,44.7,–,74.7,18.3,> 100,> 100,> 100,> 100,–,–,–,–,–,–,–,–,–,–
CCn1c2ccccc2c2cc(NC(=O)c3c(C)[nH]c(=O)[nH]c3=S)ccc21,> 100,> 100,> 100,> 100,> 100,> 100,82.2,> 100,–,–,–,–,–,–,–,–,> 100,–,–
Brc1ccc2[nH]cc(-c3nc(-c4c[nH]c5ccncc45)cs3)c2c1,3.03,3.38,–,–,2.53,3.14,3.42,3.9,–,1.83,–,2.33,–,–,1.22,1.71,–,1.65,0.98
Nc1ncc(Cc2nn3c(COc4ccc(Cl)cc4)nnc3s2)s1,> 100,> 100,> 100,> 100,> 100,> 100,> 100,> 100,> 100,–,–,–,–,–,–,–,–,–,–
OCC1=C[C@@](COCc2ccccc2)(OCc2ccccc2)[C@@H](OCc2ccccc2)[C@@H]1OCc1ccccc1,–,50.6,> 100,27.3,–,46.7,> 100,> 100,52.9,–,–,–,–,–,–,–,98.1,–,–
